Data: patent publication US20090048295A1, “SUBSTITUTED 5,6,7,8-TETRAHYDROQUINOLINE DERIVATIVES, COMPOSITIONS, AND METHODS OF USE THEREOF” (priority 2007, published 2009)
Several values for one entry are separate records, joined by “and”; a condition that tells them apart may be missing. Identical values can stand only once. Like-named read-outs stand apart in the source and are kept apart here.

Columns and labels:
C5a receptor [1] = biological target: T1, C5a receptor (Homo sapiens, UniProt P21730); assay: [125I]-C5a Radioligand Binding Assay (competition binding, differentiated U937 cells); conditions: [125I]-C5a 0.05 nM, U937 cells, multiple values = duplicate experiments; for inhibition at 1 µM: read-out: [125I]-C5a Binding % Inhibition 1 μM, test compound 1 μM; for inhibition at 10 µM: read-out: [125I]-C5a Binding % Inhibition 10 μM, test compound 10 μM; for [125I]-C5a Binding % Inhibition 1 μM: test compound 1 μM; for [125I]-C5a Binding % Inhibition 10 μM: test compound 10 μM;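 for all read-outs here: cells preincubated with compound 30 min at room temperature, then 60 min at 4 °C with radioligand, bound counts read by scintillation, nonspecific binding defined with 100 nM C5a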
T1 sequence (P21730 1-350): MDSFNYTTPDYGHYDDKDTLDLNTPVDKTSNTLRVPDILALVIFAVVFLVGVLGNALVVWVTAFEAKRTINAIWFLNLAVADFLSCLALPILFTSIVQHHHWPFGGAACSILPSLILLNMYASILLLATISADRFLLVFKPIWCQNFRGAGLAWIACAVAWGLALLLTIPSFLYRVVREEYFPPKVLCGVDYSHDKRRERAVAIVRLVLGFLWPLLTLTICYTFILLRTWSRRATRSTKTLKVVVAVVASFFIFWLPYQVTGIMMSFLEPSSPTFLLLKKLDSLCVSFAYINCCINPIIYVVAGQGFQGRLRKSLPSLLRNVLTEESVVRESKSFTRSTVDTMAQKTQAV

C5a receptor [2] = biological target: T1, C5a receptor; assay: Calcium Mobilization Assay (C5a-induced Ca2+ mobilization, FLIPR, differentiated U937 cells); assay type: cell-based; design: endogenous in cells; host or cells: U937 cells differentiated with dibutyryl cAMP; conditions: […] recombinant human C5a, 20 min pre-incubation, multiple values = duplicate experiments, read-out: C5a Induced Ca Mobil. Average IC50
In short: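 Ca2+ responses to 1.5 nM human C5a were read by FLIPR as peak Fluo-3 fluorescence over 2 min in U937 monocytic cells. Cells were differentiated with 1 mM dibutyryl cAMP for 2–3 days and exposed to compound for 20 min at room temperature in 1% DMSO before agonist.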

C5a receptor [3] = biological target: T1, C5a receptor; assay: biochemical
C5a receptor [4] = biological target: T1, C5a receptor

SMILES | inhibition at 1 µM (C5a receptor [1]) [%] | inhibition at 10 µM (C5a receptor [1]) [%] | [125I]-C5a Binding % Inhibition 1 μM (C5a receptor [1]) | [125I]-C5a Binding % Inhibition 10 μM (C5a receptor [1]) | IC50 (C5a receptor [2]) [nM] | Ki (C5a receptor [3]) [nM] | Ki (C5a receptor [4]) [nM]
CCc1cccc(CC)c1-c1cc(OC)c2c([n+]1[O-])CCCC2N(CC)c1cccc2ccccc12 (racemic) [Compound 19, (±)-[2-(2,6-Diethyl-phenyl)-4-methoxy-1-oxy-5,6,7,8-tetrahydro-quinolin-5-yl]-ethyl-naphthlen-1-yl-amine] | 81 | 86 | 82% | 98% | 161 | 106 | 
CCc1cccc(CC)c1-c1cc(OC)c2c(n1)CCCC2N(C)c1cccc2ccccc12 (racemic) [Compound 20, (±)-[2-(2,6-Diethyl-phenyl)-4-methoxy-5,6,7,8-tetrahydro-quinolin-5-yl]-methyl-naphthlen-1-yl-amine] | 84 | 93 | 99% | 102% and 100% | 165 | 7.3 | 
CCc1ccccc1-c1cc(OC)c2c(n1)CCCC2N(CC)c1cccc2ccccc12 (racemic) [Compound 39, (±)-Ethyl-[2-(2-ethyl-phenyl)-4-methoxy-5,6,7,8-tetrahydro-quinolin-5-yl]-naphthlen-1-yl-amine] | 81 | 87 | 90% | 98% | 647 | 86 | 
CCc1cccc(CC)c1-c1ccc2c(n1)CCCC2N(CC)c1cccc2ccccc12 (racemic) [Compound 109, (±)-[2-(2,6-Diethyl-phenyl)-5,6,7,8-tetrahydro-quinolin-5-yl]-ethyl-naphthlen-1-yl-amine] |  | 83 | 65% and 43% | 78% | > 10000 | 1060 | 
CCN(c1cccc2ccccc12)C1CCCc2nc(-c3c(OC)cccc3OC)cc(OC)c21 (stereo not drawn) [Compound 58] | 59 | 83 | 46% | 88% | 1770 | 1160 | 
CCN(c1cccc2ccccc12)C1CCCc2nc(-c3cccc4ccccc34)cc(OC)c21 (stereo not drawn) [Compound 78] | 71 | 85 | 72% | 95% | 5860 |  | 368
CCc1cccc(CC)c1-c1cc(OC)c2c(n1)CCCC2N(C)c1ccccc1 (stereo not drawn) [Compound 82] | 66 | 81 | 55% | 76% | 7940 |  | 678
CCc1cccc(CC)c1-c1cc(OC)c2c(n1)CCCC2N(CC)Cc1ccccc1 (stereo not drawn) [Compound 85] | 56 | 75 | 49% | 79% | > 10000 | 963 | 
CCc1cccc(CC)c1-c1cc(OC)c2c(n1)CCCC2N1Cc2ccccc2C1 (stereo not drawn) [Compound 89] |  | 75 | 71% and 37% | 77% | > 10000 | 1700 | 
CCc1cccc(CC)c1-c1cc(OC)c2c(n1)CCCC2N(C)Cc1cccc2ccccc12 (stereo not drawn) [Compound 90] | 87 | 86 | 71% | 84% | > 10000 | 409 | 
CCc1cccc(CC)c1-c1cc(OC)c2c(n1)CCCC2N(C)C1Cc2ccccc2C1 (stereo not drawn) [Compound 95] |  | 68 | 45% and 24% | 80% | > 10000 | 2060 | 
